Columns and labels:
Test in all cases: Real-time RT-PCR in PMCs from dialysed rats
Assay type in all cases: in vivo, rat
Collagen III = conditions: peritoneal cells from rats dialysed four weeks, aliskiren 0.1 or 1 mg/Kg, FIG. 18
Protocol: (§1) The rats were exposed daily for four weeks to carrier (saline serum), 1.5% PDF, 2.3% PDF or 4.5% PDF supplemented by carrier, 0.1 mg/Kg aliskiren or 1 mg/Kg aliskiren. The data is expressed as mean±SEM, n=6 rats per group. * p<0.05, compared to the group treated with carrier in the absence of aliskiren (carrier). # p<0.05, compared to their respective groups treated with PDFs in the absence of aliskiren.
(§2) For in vivo studies, 78 female rats of the Sprague-Dawley female strain weighing 200-240 g (Charles River Breeding Laboratories) were used: fifty-four rats were assigned to the group of animals which had been administered high-glucose peritoneal dialysis solutions (PDF), which were divided into three different subgroups with eighteen rats each which were administered, respectively, three PDFs having different glucose concentrations (Fresenius Medical Car, Bad Homburg, Germany). Additionally, eighteen rats were administered a carrier (saline serum) and another six rats were used as a control group (not dialysed). […]
(§3) At the end of the experimental period (four weeks), 30 ml of a commercial PDF with 2.3% glucose (Fresenius Medical Car, Bad Homburg, Germany) was administered intraperitoneally using a 22G needle. […] Their body weight was measured at the start and end of the experimental period. […]
(§4) The blood and dialysate samples were centrifuged and stored at −20° C. The concentrations of creatinine and glucose in the serum and dialysate were measured using enzymatic methods. The peritoneal transport of solutes was calculated, on one hand, as the glucose concentration in the dialysate 2 hours after the PET relative to the initial glucose concentration in the PDF (D2/D0 glucose) and, on the other, as the dialysate/plasma creatinine concentration ratio (D2/P2 creatinine) 2 h after the PET. […]
(§5) The RNA expression was evaluated by real-time RT-PCR in PMCs. […] RNA quality and concentration was evaluated by spectrophotometry (Infinite 200, Tecan, Salzburg, Austria) using 1 μl of the RNA sample. […]

BAX = conditions: peritoneal cells from rats dialysed four weeks, aliskiren 0.1 or 1 mg/Kg, FIG. 15
Protocol: as §1, §2, §3, §4, §5

Bcl-2 = conditions: peritoneal cells from rats dialysed four weeks, aliskiren 0.1 or 1 mg/Kg, FIG. 16
Protocol: as §1, §2, §3, §4, §5

Structure (SMILES): COCCCOc1cc(C[C@@H](C[C@H](N)[C@@H](O)C[C@H](C(=O)NCC(C)(C)C(N)=O)C(C)C)C(C)C)ccc1OC [aliskiren]
- RNAm expression of collagen III (Collagen III): increased
- RNAm expression of pro-apoptotic protein Bax (BAX): reduced
- RNAm expression of anti-apoptotic protein Bcl-2 (Bcl-2): increased

Source: US20130065964A1, “PERITONEAL DIALYSIS SOLUTION” (UNIVERSIDAD DE CASTILLA LA MANCHA, priority 2010, published 2013)
